From PMC6001364 (European journal of medicinal chemistry, 2018)
Like-named read-outs stand apart in the source and are kept apart here.

What was measured:
[1] = test system: WT HIV-1 strain (IIIB); assay type: cell-based; details: ratio of CC50/EC50, MT-4 cells
[2] = test system: K103 N + Y181C double mutant HIV-1 strain (RES056); test: Anti-HIV-1 activity against double mutant RES056 in MT-4 cells, MTT method; assay type: cell-based; details: for SI RES056: ratio of CC50/EC50, MT-4 cells, values given with symbol X1; for EC50 RES056: MT-4 cells, MTT method
[3] = test system: wild-type HIV-1 (NL4-3); test: Inhibition of wild-type HIV-1; assay type: cell-based; details: ratio of CC50/EC50, TZM-bl cells
[4] = test system: HIV-1 E138K mutant strain; test: microbe, parasite or virus in culture; assay type: cell-based
[5] = test system: HIV-1 Y181C mutant strain; assay type: cell-based
[6] = test system: HIV-1 Y188L mutant strain; test: microbe, parasite or virus in culture; assay type: cell-based; details: for EC50: Human immunodeficiency virus 1, MT4, read-out: EC50 Y188L
[7] = test system: HIV-1 F227L + V106A mutant strain; test: microbe, parasite or virus in culture; assay type: cell-based
[8] = Cytotoxicity in mock-infected MT-4 cells, MTT method; assay type: cell-based; details: human
[9] = test system: HIV-1 K103 N mutant strain; assay type: cell-based; details: ratio of CC50/EC50, MT-4 cells
[10] = test system: HIV-1 L100I mutant strain; test: microbe, parasite or virus in culture; assay type: cell-based
[11] = test system: WT HIV-1 strain (IIIB); details: cited from earlier work
[12] = test system: MT-4 cells; details: cited from earlier work
[13] = test system: K103 N + Y181C double mutant HIV-1 strain (RES056); details: cited from earlier work
[14] = target: HIV-1 RT (Human immunodeficiency virus type 1 group M subtype B, UniProt P03366); details: read-out: IC50 against HIV-1 RT; cited from earlier work

Cc1cc(C)c(Oc2cc(Nc3ccc(C#N)cc3)ncc2C(=O)NCc2cn(Cc3ccccc3C)nn2)c(C)c1 [3a1, N-((1-(2-methylbenzyl)-1H-1,2,3-triazol-4-yl)methyl)-6-((4-cyanophenyl)amino)-4(mesityloxy)nicotinamide]
SI IIIB [1]: ≥2132

Cc1cc(C)c(Oc2cc(Nc3ccc(C#N)cc3)ncc2C(=O)NCc2cn(Cc3ccccc3F)nn2)c(C)c1 [3a2, N-((1-(2-fluorobenzyl)-1H-1,2,3-triazol-4-yl)methyl)-6-((4-cyanophenyl)amino)-4-(mesityloxy)nicotinamide]
SI IIIB [1]: >2348
SI RES056 [2]: X1

Cc1cc(C)c(Oc2cc(Nc3ccc(C#N)cc3)ncc2C(=O)NCc2cn(Cc3ccccc3Cl)nn2)c(C)c1 [3a3, N-((1-(2-chlorobenzyl)-1H-1,2,3-triazol-4-yl)methyl)-6-((4-cyanophenyl)amino)-4-(mesityloxy)nicotinamide]
SI IIIB [1]: ≥1807

Cc1cc(C)c(Oc2cc(Nc3ccc(C#N)cc3)ncc2C(=O)NCc2cn(Cc3ccccc3C#N)nn2)c(C)c1 [3a4, N-((1-(2-cyanobenzyl)-1H-1,2,3-triazol-4-yl)methyl)-6-((4-cyanophenyl)amino)-4-(mesityloxy)nicotinamide]
SI IIIB [1]: >5589
SI RES056 [2]: X1

Cc1cc(C)c(Oc2cc(Nc3ccc(C#N)cc3)ncc2C(=O)NCc2cn(Cc3ccccc3[N+](=O)[O-])nn2)c(C)c1 [3a5, N-((1-(2-nitrobenzyl)-1H-1,2,3-triazol-4-yl)methyl)-6-((4-cyanophenyl)amino)-4-(mesityloxy)nicotinamide]
SI IIIB [1]: >3724
SI RES056 [2]: X1

Cc1cc(C)c(Oc2cc(Nc3ccc(C#N)cc3)ncc2C(=O)NCc2cn(Cc3cccc(F)c3)nn2)c(C)c1 [3a7, N-((1-(3-fluorobenzyl)-1H-1,2,3-triazol-4-yl)methyl)-6-((4-cyanophenyl)amino)-4-(mesityloxy)nicotinamide]
SI IIIB [1]: ≥2608

Cc1cc(C)c(Oc2cc(Nc3ccc(C#N)cc3)ncc2C(=O)NCc2cn(Cc3cccc(C#N)c3)nn2)c(C)c1 [3a9, N-((1-(3-cyanobenzyl)-1H-1,2,3-triazol-4-yl)methyl)-6-((4-cyanophenyl)amino)-4-(mesityloxy)nicotinamide]
SI IIIB [1]: ≥5213

Cc1cc(C)c(Oc2cc(Nc3ccc(C#N)cc3)ncc2C(=O)NCc2cn(Cc3cccc([N+](=O)[O-])c3)nn2)c(C)c1 [3a10, N-((1-(3-nitrobenzyl)-1H-1,2,3-triazol-4-yl)methyl)-6-((4-cyanophenyl)amino)-4-(mesityloxy)nicotinamide]
SI IIIB [1]: ≥4220

Cc1cc(C)c(Oc2cc(Nc3ccc(C#N)cc3)ncc2C(=O)NCc2cn(Cc3ccc(F)cc3)nn2)c(C)c1 [3a12, N-((1-(4-fluorobenzyl)-1H-1,2,3-triazol-4-yl)methyl)-6-((4-cyanophenyl)amino)-4-(mesityloxy)nicotinamide]
SI IIIB [1]: ≥2056

Cc1cc(C)c(Oc2cc(Nc3ccc(C#N)cc3)ncc2C(=O)NCc2cn(Cc3ccc(Cl)cc3)nn2)c(C)c1 [3a13, N-((1-(4-chlorobenzyl)-1H-1,2,3-triazol-4-yl)methyl)-6-((4-cyanophenyl)amino)-4-(mesityloxy)nicotinamide]
SI IIIB [1]: ≥620

Cc1cc(C)c(Oc2cc(Nc3ccc(C#N)cc3)ncc2C(=O)NCc2cn(Cc3ccc([N+](=O)[O-])cc3)nn2)c(C)c1 [3a14, N-((1-(4-nitrobenzyl)-1H-1,2,3-triazol-4-yl)methyl)-6-((4-cyanophenyl)amino)-4-(mesityloxy)nicotinamide]
SI IIIB [1]: ≥3498

Cc1cc(C)c(Oc2cc(Nc3ccc(C#N)cc3)ncc2C(=O)NCc2cn(CCCO)nn2)c(C)c1 [3b1, 6-((4-cyanophenyl)amino)-N-((1-(3-hydroxypropyl)-1H-1,2,3-triazol-4-yl)methyl)-4-(mesityloxy)nicotinamide]
EC50 RES056 [2]: low micromolar concentration

Cc1cc(C)c(Oc2cc(Nc3ccc(C#N)cc3)ncc2C(=O)NCc2cn(CCC#N)nn2)c(C)c1 [3b2, N-((1-(2-cyanoethyl)-1H-1,2,3-triazol-4-yl)methyl)-6-((4-cyanophenyl)amino)-4-(mesityloxy)nicotinamide]
SI IIIB [1]: 2044
EC50 RES056 [2]: low micromolar concentration

CC(=O)Cn1cc(CNC(=O)c2cnc(Nc3ccc(C#N)cc3)cc2Oc2c(C)cc(C)cc2C)nn1 [3b3, 6-((4-cyanophenyl)amino)-4-(mesityloxy)-N-((1-(2-oxopropyl)-1H-1,2,3-triazol-4-yl)methyl)nicotinamide]
EC50 RES056 [2]: low micromolar concentration

Cc1cc(C)c(Oc2cc(Nc3ccc(C#N)cc3)ncc2C(=O)NCc2cn(CC(N)=O)nn2)c(C)c1 [3b7, N-((1-(2-amino-2-oxoethyl)-1H-1,2,3-triazol-4-yl)methyl)-6-((4-cyanophenyl)amino)-4-(mesityloxy)nicotinamide]
EC50 RES056 [2]: low micromolar concentration

Cc1cc(C)c(Oc2cc(Nc3ccc(C#N)cc3)ncc2C(=O)NCc2cn(CC(=O)N3CCCC3)nn2)c(C)c1 [3b8, 6-((4-cyanophenyl)amino)-4-(mesityloxy)-N-((1-(2-oxo-2-(pyrrolidin-1-yl)ethyl)-1H-1,2,3-triazol-4-yl)methyl)nicotinamide]
EC50 RES056 [2]: low micromolar concentration

Cc1cc(C)c(Oc2cc(Nc3ccc(C#N)cc3)ncc2C(=O)NCc2cn(CC(=O)N3CCOCC3)nn2)c(C)c1 [3b9, 6-((4-cyanophenyl)amino)-4-(mesityloxy)-N-((1-(2-morpholino-2-oxoethyl)-1H-1,2,3-triazol-4-yl)methyl)nicotinamide]
SI IIIB [1]: 9279
SI [3]: >10.8
EC50 RES056 [2]: low micromolar concentration

Cc1cn([C@H]2C[C@H](N=[N+]=[N-])[C@@H](CO)O2)c(=O)[nH]c1=O [AZT, Zidovudine]
EC50 ([4]; Human immunodeficiency virus 1, MT4, read-out: EC50 E138K): 0.013 ± 0.004 µM
Resistance Folds Y181C ([5]; ratio of EC50 against mutant strain/EC50 against WT strain): 1.0

CC(C)Nc1cccnc1N1CCN(C(=O)c2cc3cc(NS(C)(=O)=O)ccc3[nH]2)CC1 [DLV, Delavirdine]
SI Y188L ([6]; ratio of CC50/EC50, MT-4 cells): 44
SI F227L + V106A ([7]; ratio of CC50/EC50, MT-4 cells): 16
CC50 at 5 days [8]: 36.8 µM
SI K103 N [9]: 12
SI E138K ([4]; ratio of CC50/EC50, MT-4 cells): 715
SI L100I ([10]; ratio of CC50/EC50, MT-4 cells): 14
SI Y181C ([5]; ratio of CC50/EC50, MT-4 cells): 15

O=C1Nc2ccc(Cl)cc2[C@@](C#CC2CC2)(C(F)(F)F)O1 [EFV, Efavirenz]
EC50 [6]: 0.34 ± 0.01 µM
EC50 ([7]; Human immunodeficiency virus 1, MT4, read-out: EC50 F227L + V106A): 0.21 ± 0.008 µM

Cc1cc(C#N)cc(C)c1Oc1nc(Nc2ccc(C#N)cc2)nc(N)c1Br [ETR, Etravirine]
CC50 at 5 days [8]: 2.46 µM

C#CCNC(=O)c1cnc(Nc2ccc(C#N)cc2)cc1Oc1c(C)cc(C)cc1C [L-6b5, 6-((4-cyanophenyl)amino)-4-(mesityloxy)-N-(prop-2-yn-1-yl)nicotinamide]
SI IIIB ([11]; ratio of CC50/EC50): 2471
EC50 ([11]; read-out: EC50 IIIB, MT-4 cells): 0.029 ± 0.005 µM
CC50 [12]: 73 ± 26.9 µM
SI RES056 ([13]; ratio of CC50/EC50): 12
EC50 ([13]; read-out: EC50 RES056, MT-4 cells): 6.1 ± 0.54 µM

Cc1ccnc2c1NC(=O)c1cccnc1N2C1CC1 [NVP, Nevirapine]
EC50 [6]: 9.61 ± 1.86 µM
EC50 ([10]; Human immunodeficiency virus 1, MT4, read-out: EC50 L100I): 0.83 ± 0.32 µM

CCOc1ccnc(CCNC(=S)Nc2ccc(Cl)cn2)c1F [PETT-2]
IC50 [14]: 0.005 µM
